Calls of active or inactive are those of the source.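 The calls were made as follows: active = compounds giving half or more protection of infected cells from virus-caused growth loss, again on retest; inactive = the rest.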
Test system: CEM cells HIV-1 protection, formazan growth assay
Test: NCI AIDS Antiviral Assay
Conditions: for IC50: measured here: growth of uninfected CEM cells
Summary of the method: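 Screen of anti-HIV-1 activity in human CEM cells using a formazan-based growth measurement at five drug concentrations. Hits with 50% or greater protection were repeated, and confirmation required reproducible complete protection.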

SMILES	EC50 [µM]	IC50 [µM]	outcome
CC1CN=C(Nc2ccc(S(N)(=O)=O)cc2)S1 (configuration not stated)	> 200	178	
COc1ccccc1C1CC(c2ccccc2)=Nc2ccccc2S1 (configuration not stated)	> 42.7	8.13	
Cc1ccc(S(=O)(=O)/C(C#N)=C/NC(=S)Nc2ccc(C)cc2C)cc1			inactive
COC(=O)CC1C2CC3C(C2=O)C13 (configuration not stated)	> 200	> 200	
O=C1C2c3[nH]c4ccccc4c3[C@@H]3CCCCCCCCCCC3C2C(=O)N1c1ccccc1 (some centres not stated)			inactive
COc1cc(/C=C(\C#N)c2ccccc2)cc(OC)c1	> 19.5	> 19.5	
O=c1nc2ccc3[nH]c(O)c4ccc1c2c34	> 200	178	
C[N+]1(CC(O)(O)C(F)F)CCOCC1	> 200	> 200	
CCOCc1cc(=O)c2c(O)cc3c(c2o1)CCC(C)(C)O3			inactive
CCC1(c2ccc3ccccc3c2)Oc2ccccc2-n2cccc2C1=O (configuration not stated)	1.17	91.2	
Cc1nc(N)sc1C(=O)/C=C/c1ccc([N+](=O)[O-])cc1	> 871	57.5	
CCOC(=O)N1C2c3ccccc3C(c3ccccc32)N1C(=O)OCC	> 56.2	> 56.2	
Cc1nc2c(nc1C)C(=O)C1=C(C2=O)C2C=CC1CC2	> 70.8	1.62	
O=c1c2cncnc2sc2nc3ccccc3n12	> 200	> 200	
COc1ccc(-c2nc(-c3cc4c(ccc5ccccc54)oc3=O)cs2)cc1	> 100	> 100	
O=C(/C(=C/c1ccccc1)c1ccccc1)N1c2ccccc2CC1c1c[nH]c2ccccc12 (configuration not stated)	0.38	8.51	
COc1ccc(/C=C2/C(=O)N=C(NC(C)=O)N2C)cc1OC	> 200	> 200	
CC1(C)N=C(/C(Cl)=[N+](/[O-])C(=O)c2ccc(F)cc2)C(C)(C)N1O	> 200	51.3	
COc1cc2c(cc1OC)C/C(=N\O)c1cc(OC)c(OC)cc1/C=C\2	> 200	1.74	
CC(C)=CCNc1ncnc2c1ncn2CCC#N	> 200	> 200	
CNC1(C(=O)O)CC1	> 200	> 200	
C[n+]1cn(-c2nc3ccccc3nc2[N-]S(=O)(=O)c2ccccc2)c2ccccc21	> 200	> 200	

SMILES	EC50 [µM]	IC50 [µM]	outcome
NNC1=Nc2ccccc2N=C2CCSCC21 (configuration not stated)	> 200	178	
O=C1CCC2(c3ccccc3)Nc3ccncc3N12 (configuration not stated)	> 1000	490	
CC(C)(C)CC1=COC(C=O)(CC(C)(C)C)CC1 (configuration not stated)	> 102	> 102	
CN(C)c1ccc(/C=N/NS(=O)(=O)c2ccc(N)cc2)cc1	> 214	> 214	
O=[N+]([O-])c1ccc(N2N=C(c3c(O)ccc4ccccc34)CC2c2ccc(Cl)cc2)c([N+](=O)[O-])c1 (configuration not stated)	> 200	16.6	
CC(=O)c1ccc(C(=O)c2ccccc2C(=O)O)cc1	> 200	> 200	
O=CC1=C(C(=O)OC(c2ccccc2)c2ccccc2)N2C(=O)[C@@H](NC(=O)Cc3cccs3)[C@H]2SC1	> 200	123	
O[C@]12c3ccccc3C1CCCC2N1CCOCC1 (some centres not stated)	> 200	> 200	
CCN(Cc1ccccc1)c1ccc(/C=C/c2ccnc3ccccc23)cc1	> 10.2	8.32	
O=C(CCc1ccccc1)ON1C(=S)NC(c2ccccc2)(c2ccccc2)C1=S	> 200	33.1	
COc1cc(C2c3cc(OC)c(OC)c(O)c3C(=O)C3CCC(=O)N32)cc(OC)c1OC (configuration not stated)	> 100	14.8	
CNC(=O)OCc1c(COC(=O)NC)c2n(c1C)CSC2	> 200	8.13	
NC(=O)NN/C=C(/C=Nc1ccccc1)[N+](=O)[O-]	> 105	> 105	
CCOC(=O)/C(=C\c1ccco1)C(C)=O	> 240	> 240	
CCOC(=O)c1c(NS(=O)(=O)c2ccc(C)cc2)sc(C)c1C	> 200	33.9	
CN(C)Cc1cc(N=Nc2ccccc2Cl)ccc1O	> 20	10.2	
O=C1c2cccc3cc([N+](=O)[O-])cc(c23)C(=O)N1Nc1ccc([N+](=O)[O-])cc1[N+](=O)[O-]	> 200	9.77	
COc1ccc(OC)c2c(C(=O)O)c(Cc3ccccc3)ccc12			inactive
COC(=O)c1ccccc1/C=C1\Cc2c(C)cc(C)cc2C1=O			inactive
N#C/C(=C\NC(=S)N=Nc1c(O)[nH]c2ccccc12)C(=O)c1ccc2ccccc2c1	> 200	120	
C/C(COc1ccccc1)=N\NC(N)=S			inactive
O=C1c2c(ccc3c2CCCC3)CC12Cc1ccccc1C2	> 200	22.4	
